Patent US20230346827A1 (priority 2020, published 2023)

Experiments:
SARS-CoV-2 = details: incubation of SARS-CoV-2 with exogenous LMW-DS; cited from earlier work
Human Schwann cells = experiment: Gene expression array and pathway analysis, Schwann cells, LMW-DS 0.01 mg/ml 48 h; format: cell-based; details: for number of genes: abolished nutrient effect / number of genes: total / number of genes: enhanced response to nutrients / number of genes: new effect induced by LMW-DS / number of genes: not different from control / Activation z-score / Predicted activation state relative D2 control: Schwann cells; for Activation z-score / Predicted activation state relative D2 control: D2 LMW-DS treatment
Description: For each cell line, n=8 × 25 cm^2 culture flasks were set up. Two flasks were harvested for each cell type on the day of treatment (24 hours after seeding). This represents the Day0 time point. From the remaining flasks, three flasks were treated with Control Medium and three were treated with Culture Medium (CM) containing LMW-DS to give a final concentration of 0.01 mg/ml. Cells from the treated flasks were collected after 48 hours. Therefore the collected data represent (a) untreated cells (Day0 Controls and Day2 Controls) and (b) cells treated with LMW-DS (ILB®, Tikomed AB, Viken, Sweden, WO 2016/076780) for 48 hours (Day2 LMW-DS treated).
Schwann cells growth medium was prepared by adding 10% of fetal bovine serum (FBS) to high-glucose DMEM and pre-warmed to 37° C. Cells were thawed in a 37° C. water bath for no longer than 2 min.
Cells from 12 vials were each gently transferred to a tube containing 10 ml of high-glucose DMEM medium and centrifuged at 400 relative centrifugal field (RCF) for 10 min. Pellet was re-suspended in culture medium. The cells from the 12 vials were mixed and distributed equally into the previously coated 25 cm^2 flasks (n=8). Cells were incubated at 37° C. with 5% CO2. Cells were allowed to settle for 24 hours before LMW-DS treatment.
LMW-DS was provided at a stock concentration of 20 mg/ml and was kept in a temperature monitored refrigerator at 4° C. A fresh 100x LMW-DS stock (1.0 mg/ml) was prepared in sterile DMEM-F12. The concentrated drug stock was sterile filtered and added to the respective culture media (19.6 ml CM and 0.4 ml LMW-DS stock solution). The Control was made using 19.6 ml CM and 0.4 ml of DMEM-F12. LMW-DS and CM were added to the respective flasks (5 ml each) to reach the 0.01 mg/ml concentration of LMW-DS in each dish with a total of 10 ml CM each.
CM was aspirated into a clean and labelled 15 ml Falcon tube. The flasks (without culture medium) were placed into the -80° C. freezer for 30 minutes. The CM in the Falcon tubes was spun at 3000 x g for 5 minutes. Supernatant was removed and the small pellet was re-suspended in 2.5 ml Trizol:Water (4:1) solution at room temperature (RT, ~22° C.).
Two aliquots of 1 ml lysate were removed from each sample and 200 µl of chloroform was added to each (0.2 ml of chloroform per 1 ml of TRIzol Reagent used during the cell lysis step) and the tube was shaken vigorously. Samples were stored at RT for 2-3 minutes and subsequently centrifuged at 12,000 x g for 15 minutes at 4° C.
The RNA was precipitated from the aqueous phase by adding an equal amount of 100% ethanol. The precipitated RNA was fixed onto a Spin Cartridge, washed twice and dried. The RNA was eluted in 50 µl warm RNase-Free Water. The amount and quality of the purified RNA was measured by Nanodrop. The RNA was stored at -80° C. before transfer to Source Bioscience for Array analysis.
The expression data were downloaded into separate files for each cell line. The ‘Background corrected’ expression is the data from the “gProcessedSignal” of the arrays that is the result of the background signal extracted from the actual signal of the relevant probe. This is the most often used variable in array analysis. The background corrected signal was log2 transformed for all samples for statistical analysis. To reduce the false discovery rate in the samples, the signals that were below ‘expression level’ were removed. The ‘below expression’ level was set at 5 for the log2 transformed expression values.
Based on the expression pattern of the Control probes on each array it was decided to carry out Median Centering for all arrays before analysis to reduce the variability of the results. […]

[1] = pathway analysis of gene expression
[2] = upstream regulator HGF (from line above)

Substance: sodium salt of dextran sulfate [LMW-DS]
- viral replication within ex vivo human lung tissue explants (SARS-CoV-2): reduced viral replication
- attachment-related molecules differentially expressed (Human Schwann cells): 17
- number of differentially expressed genes (Human Schwann cells; D0 control to D2 LMW-DS treated): 1244
- number of differentially expressed genes (Human Schwann cells; D2 control to D2 LMW-DS treated): 700
- number of genes: abolished nutrient effect (Human Schwann cells; no effect): 21
- number of genes: total (Human Schwann cells; no effect): 21
- number of genes: abolished nutrient effect (Human Schwann cells; significant downregulation): 1
- number of genes: enhanced response to nutrients (Human Schwann cells; significant downregulation): 122
- number of genes: new effect induced by LMW-DS (Human Schwann cells; significant downregulation): 352
- number of genes: not different from control (Human Schwann cells; significant downregulation): 42
- number of genes: total (Human Schwann cells; significant downregulation): 517
- number of genes: abolished nutrient effect (Human Schwann cells; significant upregulation): 13
- number of genes: enhanced response to nutrients (Human Schwann cells; significant upregulation): 441
- number of genes: new effect induced by LMW-DS (Human Schwann cells; significant upregulation): 74
- number of genes: not different from control (Human Schwann cells; significant upregulation): 373
- number of genes: total (Human Schwann cells; significant upregulation): 901
- number of genes: abolished nutrient effect (Human Schwann cells; total): 35
- number of genes: enhanced response to nutrients (Human Schwann cells; total): 563
- number of genes: new effect induced by LMW-DS (Human Schwann cells; total): 426
- number of genes: not different from control (Human Schwann cells; total): 415
- number of genes: total (Human Schwann cells; total): 1439
- TGFβ-induced effect in adhesion of immune cells, activation and aggregation of cells, fibrosis, self-activation of TGFβ (Human Schwann cells; molecular network analysis): totally abolished
- Complex III (cytochrome bc1) (Human Schwann cells; [1]): inhibited
- activity and/or levels of glutamate transporters (SLC1A2/3) (Human Schwann cells; [1]): increased
- genes altered in Control cultures with no changes in LMW-DS treated cultures (Human Schwann cells; two days): 21
- genes downregulated by growth factors, downregulation stronger with LMW-DS (Human Schwann cells; two days): 122
- genes downregulated in control cultures, upregulated in LMW-DS treated cultures (Human Schwann cells; two days): 13
- genes increased in control cultures, downregulated in LMW-DS treated cultures (Human Schwann cells; two days): 1
- genes upregulated in Control cultures, upregulation stronger with LMW-DS (Human Schwann cells; two days): 441
- Activation z-score (Human Schwann cells; upstream regulator ANGPT2): 1.283
- Predicted activation state relative D2 control (Human Schwann cells; upstream regulator ANGPT2): Activated
- Activation z-score (Human Schwann cells; upstream regulator BMP2): 1.395
- Predicted activation state relative D2 control (Human Schwann cells; upstream regulator BMP2): Activated
- Activation z-score (Human Schwann cells; upstream regulator BMP4): 0.927
- Predicted activation state relative D2 control (Human Schwann cells; upstream regulator BMP4): Activated
- Activation z-score (Human Schwann cells; upstream regulator BMP7): 1.86
- Predicted activation state relative D2 control (Human Schwann cells; upstream regulator BMP7): Activated
- Activation z-score (Human Schwann cells; upstream regulator EGF): 2.059
- Predicted activation state relative D2 control (Human Schwann cells; upstream regulator EGF): Activated
- Activation z-score (Human Schwann cells; upstream regulator FGF2): 2.37
- Predicted activation state relative D2 control (Human Schwann cells; upstream regulator FGF2): Activated
- Activation z-score (Human Schwann cells; upstream regulator GDF2): 2.561
- Predicted activation state relative D2 control (Human Schwann cells; upstream regulator GDF2): Activated
- Activation z-score (Human Schwann cells; [2]): 1.432
- Predicted activation state relative D2 control (Human Schwann cells; [2]): Activated
- Activation z-score (Human Schwann cells; upstream regulator IGF1): 1.332
- Predicted activation state relative D2 control (Human Schwann cells; upstream regulator IGF1): Activated
- Activation z-score (Human Schwann cells; upstream regulator NRG1): 1.768
- Predicted activation state relative D2 control (Human Schwann cells; upstream regulator NRG1): Activated
- Activation z-score (Human Schwann cells; upstream regulator NRTN): 0.958
- Predicted activation state relative D2 control (Human Schwann cells; upstream regulator NRTN): Activated
- Activation z-score (Human Schwann cells; upstream regulator PGF): 0.254
- Predicted activation state relative D2 control (Human Schwann cells; upstream regulator PGF): Activated
- Activation z-score (Human Schwann cells; upstream regulator TGFβ1): 1.05
- Predicted activation state relative D2 control (Human Schwann cells; upstream regulator TGFβ1): Less inhibited
- Activation z-score (Human Schwann cells; upstream regulator VEGFA): 3.4
- Predicted activation state relative D2 control (Human Schwann cells; upstream regulator VEGFA): Activated
- Activation z-score (Human Schwann cells; upstream regulator WISP2): -0.896
- Predicted activation state relative D2 control (Human Schwann cells; upstream regulator WISP2): Less inhibited
